Source: PMC8160793, “Potent Antimicrobial and Antibiofilm Activities of Feleucin-K3 Analogs Modified by α-(4-Pentenyl)-Ala against Multidrug-Resistant Bacteria” (Biomolecules, 2021)
Ends that are not written are not given here.

Columns and labels:
E. coli = assay: Resistance development assay, sequential passaging; format: cell-based; conditions: serial passage at sub-MIC, 20 passages
Description: (§1) Serial passage and MIC determination were used to explore whether the bacteria developed drug resistance. On the first day, the MICs of the peptides were determined as described above. The next day, the bacterial suspension of sub-MIC concentration was cultivated to the mid-log phase. The MICs of the peptides were detected again, and this process was repeated for 20 days. The MICs of the antibiotics, including amoxicillin (AML), ceftazidime (CAZ) and imipenem, were also determined as controls.

P. aeruginosa = assay: Resistance development assay, sequential passaging; format: cell-based, Pseudomonas aeruginosa; conditions: serial passage at sub-MIC, 20 passages
Description: as §1

MRSA 54 = format: cell-based, Staphylococcus aureus; conditions: 54, 18 h
Description: (§2) The minimum inhibitory concentration (MIC) of the Feleucin-K3 analogs was tested by the broth microdilution method. Sensitive bacteria and drug-resistant bacteria were diluted to 1 × 10^6 CFU/mL, according to the McFarland standards. Bacterial suspension and peptide solutions (8–128 μg/mL) were incubated at 37 °C for 18 h. The minimum concentration without obvious bacterial growth was the MIC of the peptides. The stability of the analogs in a physiological salt environment was also investigated. In brief, salt powder (450-mM NaCl) was dissolved in deionized water, and the following investigational steps were the same as those described before. The above steps were repeated several times, until the same value was obtained three times.

MRSA 71 = format: cell-based, Staphylococcus aureus; conditions: 71, 18 h
Description: as §2

S. aureus 725 = format: cell-based, Staphylococcus aureus; conditions: 725, 18 h
Description: as §2

MRSA 936 = format: cell-based, Staphylococcus aureus; conditions: 936, 18 h
Description: as §2

MRSA ATCC 33591 = format: cell-based, Staphylococcus aureus; conditions: ATCC 33591, 18 h
Description: as §2

MRSA 51 = format: cell-based, Staphylococcus aureus; conditions: 51, 18 h
Description: as §2

MRSA 23 = format: cell-based, Staphylococcus aureus; conditions: 23, 18 h
Description: as §2

MRSA 48 = format: cell-based, Staphylococcus aureus; conditions: 48, 18 h
Description: as §2

S. aureus 794 = format: cell-based, Staphylococcus aureus; conditions: 794, 18 h
Description: as §2

MRSA 113 = format: cell-based, Staphylococcus aureus; conditions: 113, 18 h
Description: as §2

MRSA 75 = format: cell-based, Staphylococcus aureus; conditions: 75, 18 h
Description: as §2

MRSA 52 = format: cell-based, Staphylococcus aureus; conditions: 52, 18 h
Description: as §2

MRSA 74 = format: cell-based, Staphylococcus aureus; conditions: 74, 18 h
Description: as §2

mouse RBCs = conditions: cited from earlier work
Description: The hemolysis rates of K70 were less than 1%, even at the maximum c ...

A. baumannii 91105 = format: cell-based, Acinetobacter baumannii; conditions: 91105, 18 h
Description: as §2

A. baumannii 5444 = format: cell-based, Acinetobacter baumannii; conditions: 5444, 18 h
Description: as §2

A. baumannii 822144 = format: cell-based, Acinetobacter baumannii; conditions: 822144, 18 h
Description: as §2

A. baumannii 51243 = format: cell-based, Acinetobacter baumannii; conditions: 51243, 18 h
Description: as §2

A. baumannii 9840 = format: cell-based, Acinetobacter baumannii; conditions: 9840, 18 h
Description: as §2

A. baumannii 98110 = format: cell-based, Acinetobacter baumannii; conditions: 98110, 18 h
Description: as §2

A. baumannii 9828 = format: cell-based, Acinetobacter baumannii; conditions: 9828, 18 h
Description: as §2

A. baumannii 91869 = format: cell-based, Acinetobacter baumannii; conditions: 91869, 18 h
Description: as §2

A. baumannii 9331 = format: cell-based, Acinetobacter baumannii; conditions: 9331, 18 h
Description: as §2

A. baumannii 91944 = format: cell-based, Acinetobacter baumannii; conditions: 91944, 18 h
Description: as §2

A. baumannii 91199 = format: cell-based, Acinetobacter baumannii; conditions: 91199, 18 h
Description: as §2

A. baumannii 9896 = format: cell-based, Acinetobacter baumannii; conditions: 9896, 18 h
Description: as §2

A. baumannii 91152 = format: cell-based, Acinetobacter baumannii; conditions: 91152, 18 h
Description: as §2

A. baumannii 9336 = format: cell-based, Acinetobacter baumannii; conditions: 9336, 18 h
Description: as §2

A. baumannii 92359 = format: cell-based, Acinetobacter baumannii; conditions: 92359, 18 h
Description: as §2

A. baumannii 8309 = format: cell-based, Acinetobacter baumannii; conditions: 8309, 18 h
Description: as §2

A. baumannii 9234 = format: cell-based, Acinetobacter baumannii; conditions: 9234, 18 h
Description: as §2

A. baumannii 9236 = format: cell-based, Acinetobacter baumannii; conditions: 9236, 18 h
Description: as §2

A. baumannii 97830 = format: cell-based, Acinetobacter baumannii; conditions: 97830, 18 h
Description: as §2

A. baumannii 91810 = format: cell-based, Acinetobacter baumannii; conditions: 91810, 18 h
Description: as §2

A. baumannii = assay: Resistance development assay, sequential passaging; format: cell-based, Acinetobacter baumannii; conditions: serial passage at sub-MIC, 20 passages
Description: as §1

[1] = tested on: multidrug-resistant A. baumannii; parameters: method as in PMID 32590058; conditions: previous studies; cited from earlier work

CC(C)(O/N=C(\C(=O)N[C@@H]1C(=O)N2C(C(=O)[O-])=C(C[n+]3ccccc3)CS[C@H]12)c1csc(N)n1)C(=O)O [CAZ, ceftazidime]
fold increase of MIC, E. coli (E. coli): 16 fold
fold increase of MIC, P. aeruginosa (P. aeruginosa): 32 fold

FLKLLKKLL-NH2 [Feleucin-K3]
MIC, MRSA 54 (MRSA 54): 8 µg/mL
MIC, MRSA 71 (MRSA 71): 8 µg/mL
MIC, S. aureus 725 (S. aureus 725): 8 µg/mL
MIC, MRSA 936 (MRSA 936): 8 µg/mL
MIC, MRSA ATCC 33591 (MRSA ATCC 33591): 8 µg/mL
MIC, MRSA 51 (MRSA 51): 8 µg/mL
MIC, MRSA 23 (MRSA 23): 8 µg/mL
MIC, MRSA 48 (MRSA 48): 8 µg/mL
MIC, S. aureus 794 (S. aureus 794): 16 µg/mL
MIC, MRSA 113 (MRSA 113): 8 µg/mL
MIC, MRSA 75 (MRSA 75): 8 µg/mL
MIC, MRSA 52 (MRSA 52): 8 µg/mL
MIC, MRSA 74 (MRSA 74): 8 µg/mL
hemolytic rate at 256 µg/mL (mouse RBCs): more than 40%
MIC, A. baumannii 91105 (A. baumannii 91105): 8 µg/mL
MIC, A. baumannii 5444 (A. baumannii 5444): 8 µg/mL
MIC, A. baumannii 822144 (A. baumannii 822144): 8 µg/mL
MIC, A. baumannii 51243 (A. baumannii 51243): 8 µg/mL
MIC, A. baumannii 9840 (A. baumannii 9840): 8 µg/mL
MIC, A. baumannii 98110 (A. baumannii 98110): 8 µg/mL
MIC, A. baumannii 9828 (A. baumannii 9828): 16 µg/mL
MIC, A. baumannii 91869 (A. baumannii 91869): 8 µg/mL
MIC, A. baumannii 9331 (A. baumannii 9331): 16 µg/mL
MIC, A. baumannii 91944 (A. baumannii 91944): 8 µg/mL
MIC, A. baumannii 91199 (A. baumannii 91199): 8 µg/mL
MIC, A. baumannii 9896 (A. baumannii 9896): 8 µg/mL
MIC, A. baumannii 91152 (A. baumannii 91152): 8 µg/mL
MIC, A. baumannii 9336 (A. baumannii 9336): 8 µg/mL
MIC, A. baumannii 92359 (A. baumannii 92359): 8 µg/mL
MIC, A. baumannii 8309 (A. baumannii 8309): 8 µg/mL
MIC, A. baumannii 9234 (A. baumannii 9234): 8 µg/mL
MIC, A. baumannii 9236 (A. baumannii 9236): 16 µg/mL
MIC, A. baumannii 97830 (A. baumannii 97830): 8 µg/mL
MIC, A. baumannii 91810 (A. baumannii 91810): 8 µg/mL

C[C@@H](O)[C@H]1C(=O)N2C(C(=O)O)=C(SCCN=CN)C[C@H]12 [imipenem]
maximum fold increase of MIC, A. baumannii (A. baumannii): ≤ 16 fold
MIC against multidrug-resistant A. baumannii [1]: ≤ 64 µg/mL
